Experiments:
human OX1 receptors = molecular target: T1, human OX1 receptors (Homo sapiens, UniProt O43613); assay: Calcium mobilization Ke assay; type: cell-based; details: for OX2/OX1: ratio of Ke OX2 to Ke OX1 (table column)
T1 sequence (O43613 1-425): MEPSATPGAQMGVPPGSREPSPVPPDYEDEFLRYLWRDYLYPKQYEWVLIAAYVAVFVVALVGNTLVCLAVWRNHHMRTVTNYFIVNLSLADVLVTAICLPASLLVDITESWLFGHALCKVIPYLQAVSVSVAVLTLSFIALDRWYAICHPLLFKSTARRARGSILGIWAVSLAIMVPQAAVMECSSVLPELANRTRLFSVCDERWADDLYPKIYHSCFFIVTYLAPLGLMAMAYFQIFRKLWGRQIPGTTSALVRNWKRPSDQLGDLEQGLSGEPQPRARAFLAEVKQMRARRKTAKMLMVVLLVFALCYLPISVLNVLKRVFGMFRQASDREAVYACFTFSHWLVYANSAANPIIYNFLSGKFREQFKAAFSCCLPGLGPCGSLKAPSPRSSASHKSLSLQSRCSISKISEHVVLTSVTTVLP

human OX2 receptors = molecular target: T2, human OX2 receptors (Homo sapiens, UniProt O43614); assay: Calcium mobilization Ke assay; type: cell-based
T2 sequence (O43614 1-444): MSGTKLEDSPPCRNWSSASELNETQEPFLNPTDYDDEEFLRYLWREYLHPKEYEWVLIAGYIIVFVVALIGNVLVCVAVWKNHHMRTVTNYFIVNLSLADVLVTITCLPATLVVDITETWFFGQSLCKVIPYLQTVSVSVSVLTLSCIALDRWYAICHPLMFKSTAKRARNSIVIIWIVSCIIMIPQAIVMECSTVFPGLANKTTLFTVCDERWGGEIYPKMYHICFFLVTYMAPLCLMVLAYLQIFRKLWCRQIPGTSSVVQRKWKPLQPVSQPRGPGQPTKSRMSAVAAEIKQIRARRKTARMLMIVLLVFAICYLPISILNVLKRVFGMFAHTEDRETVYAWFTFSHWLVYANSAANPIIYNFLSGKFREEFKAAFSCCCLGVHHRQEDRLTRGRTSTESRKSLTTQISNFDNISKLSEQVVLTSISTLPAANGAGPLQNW

Sprague-Dawley rats = assay: Locomotor activity and acute cocaine-induced hyperactivity; type: in vivo, rat; details: 10 mg/kg alone, i.p. (data not shown)
[1] = administrated i.p.; cited from earlier work
OX1 = details: cited from earlier work

Row | OX2/OX1 (human OX1 receptors) | Kb (human OX2 receptors) [µM] | SMILES | also measured
1 | >11 | > 10 | CCCNc1cc(CC2c3cc(OC)c(OC)cc3CCN2CC(=O)NCc2ccccc2)ccc1OC (centres unmarked) [Compound 31, N-Benzyl-2-(6,7-dimethoxy-1-{[4-methoxy-3-(propylamino)phenyl]methyl}-1,2,3,4-tetrahydroisoquinolin-2-yl)acetamide] | –
2 | >23 | > 10 | COc1cc2c(cc1OC)C(Cc1ccc3ncccc3c1)N(CC(=O)NCc1ccccc1)CC2 (centres unmarked) [Compound 55, N-Benzyl-2-[6,7-dimethoxy-1-(quinolin-6-ylmethyl)-1,2,3,4-tetrahydroisoquinolin-2-yl]acetamide] | –
3 | >83 | > 10 | CCCCCCOc1ccc(CC2c3cc(OC)c(OC)cc3CCN2CC(=O)NCc2ccccc2)cc1OC (centres unmarked) [Compound 14, N-Benzyl-2-(1-{[4-(hexyloxy)-3-methoxyphenyl]methyl}-6,7-dimethoxy-1,2,3,4-tetrahydroisoquinolin-2-yl)acetamide] | –
4 | – | – | CCCOc1ccc(CC2c3cc(OCCC)c(OC)cc3CCN2CC(=O)NCc2ccccc2)cc1OC (centres unmarked) [Compound 73, N-Benzyl-2-{6-methoxy-1-[(3-methoxy-4-propoxyphenyl)methyl]-7-propoxy-1,2,3,4-tetrahydroisoquinolin-2-yl}acetamide] | OX1 selectivity over the OX2 receptor (human OX1 receptors): > 620 fold; spontaneous activity (Sprague-Dawley rats): did not significantly alter the spontaneous activity
5 | >48 | > 10 | CCN(CC)c1cc(CC2c3cc(OC)c(OC)cc3CCN2CC(=O)NCc2ccccc2)ccc1OC (centres unmarked) [Compound 30, N-Benzyl-2-(1-{[3-(diethylamino)-4-methoxyphenyl]methyl}-6,7-dimethoxy-1,2,3,4-tetrahydroisoquinolin-2-yl)acetamide] | –
6 | >20 | > 10 | COc1cc2c(cc1OC)C(Cc1ccc(OC(C)C)cc1)N(CC(=O)NCc1ccccc1)CC2 (centres unmarked) [Compound 46, N-Benzyl-2-(6,7-dimethoxy-1-{[4-(propan-2-yloxy)phenyl]methyl}-1,2,3,4-tetrahydroisoquinolin-2-yl)acetamide] | –
7 | >118 | > 10 | COc1cc2c(cc1OC)C(Cc1ccc(C(C)C)cc1)N(CC(=O)NCc1ccccc1)CC2 (centres unmarked) [Compound 51, N-Benzyl-2-(6,7-dimethoxy-1-{[4-(propan-2-yl)phenyl]methyl}-1,2,3,4-tetrahydroisoquinolin-2-yl)acetamide] | –
8 | <0.12 | 1.2 ± 0.16 | COc1cc2c(cc1OC)C(Cc1cccc([N+](=O)[O-])c1)N(CC(=O)NCc1ccccc1)CC2 (centres unmarked) [Compound 42, N-Benzyl-2-{6,7-dimethoxy-1-[(3-nitrophenyl)methyl]-1,2,3,4-tetrahydroisoquinolin-2-yl}acetamide] | –
9 | >40 | > 10 | COc1cc2c(cc1OC)C(Cc1ccc(N(C)C)cc1)N(CC(=O)NCc1ccccc1)CC2 (centres unmarked) [Compound 48, N-Benzyl-2-(1-{[4-(dimethylamino)phenyl]methyl}-6,7-dimethoxy-1,2,3,4-tetrahydroisoquinolin-2-yl)acetamide] | –
10 | 48 | 2.08 ± 0.6 | CCCC(=O)Oc1ccc(CC2c3cc(OC)c(OC)cc3CCN2CC(=O)NCc2ccccc2)cc1OC (centres unmarked) [Compound 16, 4-({2-[(Benzylcarbamoyl)methyl]-6,7-dimethoxy-1,2,3,4-tetrahydroisoquinolin-1-yl}methyl)-2-methoxyphenyl butanoate] | –
11 | – | > 10 | COc1cc2c(cc1OC)C(Cc1cc(OC)c(OC)c(OC)c1)N(CC(=O)NCc1ccccc1)CC2 (centres unmarked) [Compound 52, N-Benzyl-2-{6,7-dimethoxy-1-[(3,4,5-trimethoxyphenyl)methyl]-1,2,3,4-tetrahydroisoquinolin-2-yl}acetamide] | –
12 | – | > 10 | COc1ccc(CCC2c3cc(OC)c(OC)cc3CCN2CC(=O)NCc2ccccc2)cc1OC (centres unmarked) [Compound 60, N-Benzyl-2-{1-[2-(3,4-dimethoxyphenyl)ethyl]-6,7-dimethoxy-1,2,3,4-tetrahydroisoquinolin-2-yl}acetamide] | –
13 | >6.8 | > 10 | COc1cc2c(cc1OC)C(Cc1cccc(OC(C)C)c1)N(CC(=O)NCc1ccccc1)CC2 (centres unmarked) [Compound 41, N-Benzyl-2-(6,7-dimethoxy-1-{[3-(propan-2-yloxy)phenyl]methyl}-1,2,3,4-tetrahydroisoquinolin-2-yl)acetamide] | decrease in OX1 potency compared to 11 (human OX1 receptors): ~ 7 fold
14 | – | – | COc1cc2c(cc1OC)C(Cc1ccc(OC)c([N+](=O)[O-])c1)N(CC(=O)NCc1ccccc1)CC2 (centres unmarked) [Compound 26, N-Benzyl-2-{6,7-dimethoxy-1-[(4-methoxy-3-nitrophenyl)methyl]-1,2,3,4-tetrahydroisoquinolin-2-yl}acetamide] | decrease in OX1 potency compared to 11 (human OX1 receptors): ~ 7 fold
15 | – | > 10 | COc1cc2c(cc1OC)C(Cc1ccc(C)c(C)c1)N(CC(=O)NCc1ccccc1)CC2 (centres unmarked) [Compound 53, N-Benzyl-2-{1-[(3,4-dimethylphenyl)methyl]-6,7-dimethoxy-1,2,3,4-tetrahydroisoquinolin-2-yl}acetamide] | –
16 | >24 | > 10 | COc1cc(CC2c3cc(OC)c(OC)cc3CCN2CC(=O)NCc2ccccc2)ccc1O (centres unmarked) [Compound 12, N-Benzyl-2-{1-[(4-hydroxy-3-methoxyphenyl)methyl]-6,7-dimethoxy-1,2,3,4-tetrahydroisoquinolin-2-yl}acetamide] | –
17 | – | – | Cc1nc2ccc(NC(=O)Nc3ccnc4cccnc34)cc2o1 [SB-334867] | development of locomotor sensitization to cocaine [1]: block the development of locomotor sensitization to cocaine; affinity for OX1 higher than for OX2 (OX1): ~ 50 fold
18 | 6.6 | 1.62 ± 0.23 | COc1cc2c(cc1OC)C(Cc1ccc3ccccc3c1)N(CC(=O)NCc1ccccc1)CC2 (centres unmarked) [Compound 54, N-Benzyl-2-[6,7-dimethoxy-1-(naphthalen-2-ylmethyl)-1,2,3,4-tetrahydroisoquinolin-2-yl]acetamide] | –
19 | >27 | > 10 | CCCOc1ccc(CC2c3cc(OC)c(OC)cc3CCN2CC(=O)NCc2ccccc2)cc1 (centres unmarked) [Compound 45, N-Benzyl-2-{6,7-dimethoxy-1-[(4-propoxyphenyl)methyl]-1,2,3,4-tetrahydroisoquinolin-2-yl}acetamide] | –
20 | – | – | COc1cc2c(cc1OC)C(Cc1ccc(OS(=O)(=O)c3ccccc3)c(OC)c1)N(CC(=O)NCc1ccccc1)CC2 (centres unmarked) [Compound 23, 4-({2-[(Benzylcarbamoyl)methyl]-6,7-dimethoxy-1,2,3,4-tetrahydroisoquinolin-1-yl}methyl)-2-methoxyphenyl benzenesulfonate] | decrease in OX1 potency compared to 11 (human OX1 receptors): ~ 9 fold
21 | 76.7 | 0.97 ± 0.35 | COc1cc2c(cc1OC)C(Cc1ccc(OC)c(N(C)C)c1)N(CC(=O)NCc1ccccc1)CC2 (centres unmarked) [Compound 28, N-Benzyl-2-(1-{[3-(dimethylamino)-4-methoxyphenyl]methyl}-6,7-dimethoxy-1,2,3,4-tetrahydroisoquinolin-2-yl)acetamide] | –
22 | – | – | COc1ccc(CC2c3cc(OC)c(OC)cc3CCN2CC(=O)NCc2ccccc2)cc1NCc1ccccc1 (centres unmarked) [Compound 33, N-Benzyl-2-(1-{[3-(benzylamino)-4-methoxyphenyl]methyl}-6,7-dimethoxy-1,2,3,4-tetrahydroisoquinolin-2-yl)acetamide] | OX1 antagonist activity in words (human OX1 receptors; at concentrations up to 10 μM): no activity
23 | – | – | COc1cc2c(cc1OC)C(Cc1ccc(OCc3ccccc3)c(OC)c1)N(CC(=O)NCc1ccccc1)CC2 (centres unmarked) [Compound 18, N-Benzyl-2-(1-{[4-(benzyloxy)-3-methoxyphenyl]methyl}-6,7-dimethoxy-1,2,3,4-tetrahydroisoquinolin-2-yl)acetamide] | decrease in OX1 potency compared to 11 (human OX1 receptors): 2 fold
24 | – | > 10 | COc1cc2c(cc1OC)C(C(C)c1ccccc1)N(CC(=O)NCc1ccccc1)CC2 (centres unmarked) [Compound 56, N-Benzyl-2-[6,7-dimethoxy-1-(1-phenylethyl)-1,2,3,4-tetrahydroisoquinolin-2-yl]acetamide] | –
25 | 8.8 | 0.66 ± 0.16 | COc1cc2c(cc1OC)C(Cc1cccc(N(C)C)c1)N(CC(=O)NCc1ccccc1)CC2 (centres unmarked) [Compound 44, N-Benzyl-2-(1-{[3-(dimethylamino)phenyl]methyl}-6,7-dimethoxy-1,2,3,4-tetrahydroisoquinolin-2-yl)acetamide] | –
26 | >32 | > 10 | CCNc1cc(CC2c3cc(OC)c(OC)cc3CCN2CC(=O)NCc2ccccc2)ccc1OC (centres unmarked) [Compound 29, N-Benzyl-2-(1-{[3-(ethylamino)-4-methoxyphenyl]methyl}-6,7-dimethoxy-1,2,3,4-tetrahydroisoquinolin-2-yl)acetamide] | –

Row | SMILES | OX2/OX1 (human OX1 receptors) | Kb (human OX2 receptors) [µM] | also measured
27 | CCCCOc1ccc(CC2c3cc(OC)c(OC)cc3CCN2CC(=O)NCc2ccccc2)cc1OC (centres unmarked) [Compound 13, N-Benzyl-2-{1-[(4-butoxy-3-methoxyphenyl)methyl]-6,7-dimethoxy-1,2,3,4-tetrahydroisoquinolin-2-yl}acetamide] | 42 | 2 ± 0.86 | –

— PMC4400266 (ACS chemical neuroscience, 2015)
